Test results from patent US20070213359A1 (ACADIA Pharmaceuticals Inc., priority 2005, published 2007).
Read-outs that look alike come from different tables or passages of the source.

Experiments:
GHSR1a receptor = target: T1, GHSR1a receptor (Homo sapiens, UniProt Q92847); test: 125I-Ghrelin binding assay; settings: displacement of 125I-ghrelin (0.053 nM), membranes of HEK293 cells transfected with GHSR1a, Cheng-Prussoff, '—' not defined
T1 construct: expressed in transfected cells; host or cells: HEK293 (membranes)
Description: Plasmid DNA containing the GHSR1a receptor (12.5 ug/dish) in 0.675 ml DMEM was transfected into the cells by mixing with 180 ul PolyFect, 15 min later mixing in 2.25 ml 10% CS/DMEM, and transferring the mixture into the dish. At 16-18 h post transfection, medium was replaced with 25 ml fresh 10% FCS/1% PSG/DMEM to each dish for another 18-20 h. At approximately 48 hours post-transfection, cells were harvested in ice-cold membrane buffer (20 mM HEPES, 6 mM MgCl2, 1 mM EDTA, pH to 7.2) using a cell scraper, and pelleted by centrifugation.
Pelleted cells were added to a nitrogen cavitation chamber and 900 bar of pressure applied for 30 min. The pressure was slowly released the cavitated cells collected in 50 ml falcon tubes. The tubes were centrifuged at 1000 rpm, 4° C. for 10 min, and the supernatant collected. This centrifugation and collection was repeated two more times until the supernatant was free of precipitate (membranes are still in suspension). The supernatant was poured into a 50 ml centrifuge tube and centrifuged at 10.000 rpm, 4° C. for 20 min. The supernatant was discarded and the pellet re-suspended in 750 μl membrane binding buffer using a chilled 1 ml syringe with 25G5/8 needle to re-suspend membranes. The protein concentration was determined using the BioRad Protein Assay Dye Reagent according to the manufacturers instructions. The protein concentration was adjusted to 5 mg/ml and aliquots snap-frozed and stored at −80 C until use.
Membranes were thawed rapidly; diluted with binding buffer (25 mM Hepes+5 mM MgCl2, 1 mM CaCl2, 2.5 mM EDTA and 0.2% BSA) to a protein concentration of 0.8 ug/30 ul and placed on ice. 96-well plates (U-bottom wells) were prepared with serial dilutions (8 doses, 40 ul/w) of the test compounds. Membranes (30 uL/well) were then added, and incubated with test ligands for 30 min at room temperature with shaking. […] Binding was terminated by filtration through GF/B filters (presoaked with 0.1% polyethylenimine) with a Brandel 96-well harvester. The filters were washed with ice-cold binding buffer (150 ml/plate) and allowed to air-dry for 30 min. 50 ul MicroScient-20 cocktail was added to each dried well, the plates were sealed, and counted for 2 min/well using a TopCount scintillation counter (Packard).

Ghrelin receptor = Ghrelin receptor (Homo sapiens, UniProt Q92847); test: Receptor Selection and Amplification Technology (R-SAT) assay; assay type: cell-based; set-up: expressed in transfected cells; host or cells: NIH3T3; settings: for IC50: '—' not defined (nd used separately), read-out: RSAT pIC50 (converted); for Emax: read-out: RSAT Eff(%)
[1] = read-out: Binding pKi (converted)
[2] = negative logarithm of ligand concentration causing 50% inhibition of constitutive receptor response, transfected NIH3T3 cells
[3] = percent inhibition at saturating ligand, normalized to reference ligand Substance P analog = 100%

T1 sequence (Q92847 whole entry): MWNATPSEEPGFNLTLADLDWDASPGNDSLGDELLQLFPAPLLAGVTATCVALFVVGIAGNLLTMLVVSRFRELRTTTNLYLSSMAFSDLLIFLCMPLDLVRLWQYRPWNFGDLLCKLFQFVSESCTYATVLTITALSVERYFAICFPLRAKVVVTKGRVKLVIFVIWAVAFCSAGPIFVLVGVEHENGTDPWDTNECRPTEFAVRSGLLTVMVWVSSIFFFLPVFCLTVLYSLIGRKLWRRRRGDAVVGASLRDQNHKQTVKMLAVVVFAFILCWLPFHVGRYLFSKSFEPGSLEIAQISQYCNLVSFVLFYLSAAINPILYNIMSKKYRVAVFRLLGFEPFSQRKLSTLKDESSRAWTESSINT
Sequence of Ghrelin receptor (Q92847 whole entry): as above

Row | SMILES | Ki (GHSR1a receptor; Binding pKi) | IC50 (Ghrelin receptor; […]) | Emax (Ghrelin receptor) | Ki (GHSR1a receptor; [1]) | Emax (Ghrelin receptor; [3]) | other results
1 | COc1cccc2c(C(=O)NCc3cccc(Cl)c3)cn(CCCN3C4CCC3CC(CCc3ccccc3)C4)c12 (stereo not shown) | 7.94 nM | 1 nM | 115% | – | – | –
2 | COc1cccc2c(C(=O)Cc3ccccc3)cn(CCCN3CCN(CCOc4ccc(Cl)cc4)CC3)c12 | – | 7.94 nM | 82% | 3160 nM | – | –
3 | COc1cccc2c(C(=O)C3CC3)cn(CCCN3CCCN(Cc4ccc(F)cc4)CC3)c12 | 7.94 nM | 1.26 nM | 92% | – | – | –
4 | CCCOC1CCN(CCCn2cc(C(C)=O)c3cccc(OC)c32)CC1 [drawing 333] | – | – | – | 2000 nM | 112% | IC50 (Ghrelin receptor; [2]): 15.8 nM
5 | COc1cccc2c(C(=O)NCc3cccc(Cl)c3)cn(CCCN3CCN(CCOc4ccccc4)CC3)c12 | 6.31 nM | 79.4 nM | 101% | – | – | –
6 | CC(=O)c1c(C)n(CCCN2CCCN(Cc3ccccc3Cl)CC2)c2c(Br)cccc12 | – | – | – | 398 nM | -14% | –
7 | COc1cccc2c(C(=O)c3ccccc3)cn(CCCN3CCN(CCOc4ccccc4)CC3)c12 | – | 12.6 nM | 98% | 251 nM | – | –
8 | COc1cccc2c(C(=O)C3CC3)cn(CCCN3C4CCC3CC(CC(=O)c3ccc(Cl)cc3)C4)c12 (stereo not shown) | 39.8 nM | 7.94 nM | 70% | – | – | –
9 | CCc1cccc2c(C(C)=O)cn(CCCN3CCC(CCOc4ccc(Cl)cc4)CC3)c12 | – | – | – | 501 nM | 76% | –
10 | COc1cccc2c(C(=O)C3CC3)cn(CCCN3CCN(CCOc4ccc(Cl)cc4)CC3)c12 | 126 nM | 20 nM | 122% | – | – | –
11 | COc1cccc2c(C(C)=O)cn(CCCN3CCC(Cc4ccccc4)CC3)c12 | – | – | – | 794 nM | 116% | IC50 (Ghrelin receptor; [2]): 31.6 nM
12 | COc1cccc2c(C(=O)Cc3ccccc3)cn(CCCN3CCC(CCOc4ccc(Cl)cc4)CC3)c12 | 251 nM | 25.1 nM | 121% | – | – | –
13 | O=C(NCc1cccc(Cl)c1)c1cn(CCCN2CCC(Oc3ccc(F)cc3)CC2)c2ccccc12 [drawing 659] | – | – | – | 1580 nM | – | RSAT Eff(%) (Ghrelin receptor): 67%
14 | CC(=O)c1cn(CCCN2CCC(Oc3ccc(F)cc3)CC2)c2c(C)cccc12 | – | – | – | 200 nM | 72% | IC50 (Ghrelin receptor; [2]): 5.01 nM
15 | COC(=O)c1cn(CCCN2CCC(Oc3ccc(F)cc3)CC2)c2ccccc12 | – | – | – | 3160 nM | 87% | IC50 (Ghrelin receptor; [2]): 2000 nM
16 | COc1cccc2c(C(C)=O)cn(CCCN3CCCN(Cc4ccc(F)cc4)CC3)c12 | – | – | – | 15.8 nM | – | IC50 (Ghrelin receptor; [2]): 1.26 nM; RSAT Eff(%) (Ghrelin receptor; [3]): 130%
17 | COc1cccc2c(C(=O)NCc3cccc(C)c3)cn(CCCNC3Cc4ccccc4C3)c12 | 79.4 nM | 398 nM | 84% | – | – | –
18 | COc1ccccc1C1CCN(CCCn2cc(C(C)=O)c3cccc(Br)c32)CC1 | – | – | – | 316 nM | 109% | IC50 (Ghrelin receptor; [2]): 50.1 nM
19 | COc1cccc2c(C(=O)NCc3cccc(C)c3)cn(CCCN3CCC(c4nc(-c5cccnc5)no4)CC3)c12 | 158 nM | 79.4 nM | 97% | – | – | –
20 | COc1cccc2c(C(C)=O)cn(CCCN3CCN(c4ccc(C#N)cc4)CC3)c12 | – | – | – | 631 nM | 90% | IC50 (Ghrelin receptor; [2]): 12.6 nM
21 | COc1cccc2c(C(=O)c3ccccc3)cn(CCCN3CCCN(Cc4ccccc4Cl)CC3)c12 | – | 0.398 nM | 98% | 3.98 nM | – | –
22 | COc1cccc2c(C(=O)c3ccccc3)cn(CCCN3CCC(Oc4ccc(F)cc4)CC3)c12 | – | 25.1 nM | 107% | 1260 nM | – | –
23 | COc1cccc2c(C(=O)NCc3cccc(C)c3)cn(CCCN3[C@@H]4CC[C@H]3CC(CC(=O)c3ccccc3)C4)c12 (stereo partly shown) | 63.1 nM | – | – | – | – | –
24 | CC(=O)c1c(C)n(CCCN2C3CCC2CC(CCc2ccccc2)C3)c2c(Br)cccc12 (stereo not shown) | – | – | – | 200 nM | – | –
25 | CC(=O)c1c(C)n(CCCN2CCC(CCOc3ccc(Cl)cc3)CC2)c2c(Br)cccc12 | – | – | – | 631 nM | – | –
26 | O=C(c1cn(CCCN2C3CCC2CC(CCc2ccc(Cl)cc2)C3)c2ncccc12)C(F)(F)F (stereo not shown) | – | – | – | 251 nM | – | –
